Assay results reported in ChEMBL document CHEMBL1201862, “PubChem BioAssay data set” (2004).
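Protocol summary: plate cells (96-well), add compound at 5 concentrations, incubate 48 h, interpolate endpoints linearly. Abbreviation: GI50, concentration required for 50% inhibition of growth.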 Activity calls are given as the source filed them. Rule as the data show it: active = GI50 up to about 1.1 µM and inactive = higher.

Experiments:
Experiment in all cases: DTP human tumour cell line panel, 48 h
MDA-MB-231 = system: MDA-MB-231
786-0 = system: 786-0
HCC 2998 = system: HCC 2998
UACC-257 = system: UACC-257
HOP-62 = system: HOP-62
SR = system: SR
ACHN = system: ACHN
SF-268 = system: SF-268
COLO 205 = system: COLO 205
HT-29 = system: HT-29
HOP-92 = system: HOP-92
SK-MEL-28 = system: SK-MEL-28
UACC-62 = system: UACC-62
SK-OV-3 = system: SK-OV-3
NCI-H23 = system: NCI-H23
SF-295 = system: SF-295
K562 = system: K562
OVCAR-3 = system: OVCAR-3
MDA-N = system: MDA-N
RPMI-8226 = system: RPMI-8226

Measured: GI50

NCCCN1CCN(CC(=O)O)CCN(CCCN)CCN(CC(=O)O)CC1
inactive: MDA-MB-231 > 100 µM | 786-0 6.93 µM | HCC 2998 19.5 µM | UACC-257 > 100 µM | HOP-62 > 100 µM | SR > 26.9 µM | ACHN > 100 µM | SF-268 > 100 µM | COLO 205 33.7 µM | HT-29 > 19.9 µM | HOP-92 > 100 µM | SK-MEL-28 > 100 µM | UACC-62 > 56.9 µM | SK-OV-3 > 92 µM | NCI-H23 > 100 µM | SF-295 > 93.3 µM | K562 6.67 µM | OVCAR-3 > 31.8 µM | MDA-N > 35.9 µM | RPMI-8226 17.4 µM

O=c1oc2c/c(=C\c3ccc([N+](=O)[O-])cc3)c(=O)c3cccc1c3-2
inactive: MDA-MB-231 > 100 µM | 786-0 > 100 µM | HCC 2998 > 100 µM | UACC-257 > 100 µM | HOP-62 38.6 µM | SR > 100 µM | ACHN > 100 µM | SF-268 39.8 µM | COLO 205 > 100 µM | HT-29 > 100 µM | HOP-92 52 µM | SK-MEL-28 > 100 µM | UACC-62 > 100 µM | SK-OV-3 > 100 µM | NCI-H23 > 100 µM | SF-295 > 100 µM | K562 > 100 µM | OVCAR-3 48.5 µM | MDA-N > 100 µM | RPMI-8226 > 100 µM

CC(C)(C)C1CCC2c3c([nH]c4ccccc34)C3C(=O)N(c4ccc(C#N)cc4)C(=O)C3C2C1 (stereo unspecified)
inactive: MDA-MB-231 15.3 µM | 786-0 12 µM | HCC 2998 3.25 µM | UACC-257 20.2 µM | HOP-62 15.7 µM | SR 6.47 µM | ACHN 15.1 µM | SF-268 11 µM | COLO 205 21.4 µM | HT-29 3.78 µM | HOP-92 4.54 µM | SK-MEL-28 14 µM | UACC-62 5.81 µM | SK-OV-3 24.4 µM | NCI-H23 6.61 µM | SF-295 29.2 µM | K562 6.22 µM | OVCAR-3 16.4 µM | MDA-N 11.9 µM | RPMI-8226 21.3 µM

Cc1ccc(S(=O)(=O)N2CCN(S(=O)(=O)c3ccc(C)cc3)CCN(S(=O)(=O)c3ccc(C)cc3)Cc3cc(C#N)c(C#N)cc3CN(S(=O)(=O)c3ccc(C)cc3)CC2)cc1
inactive: MDA-MB-231 31 µM | 786-0 > 100 µM | HCC 2998 > 100 µM | UACC-257 > 100 µM | HOP-62 > 100 µM | SR > 100 µM | ACHN > 100 µM | SF-268 > 100 µM | COLO 205 > 100 µM | HT-29 > 100 µM | HOP-92 25.3 µM | SK-MEL-28 > 100 µM | UACC-62 > 100 µM | SK-OV-3 > 100 µM | NCI-H23 > 100 µM | SF-295 > 100 µM | K562 > 100 µM | OVCAR-3 > 100 µM | MDA-N 95.7 µM | RPMI-8226 > 100 µM

COc1ccc(N2C=Nn3c(nc4sc(C)c(C)c4c3=O)C2)cc1
inactive: MDA-MB-231 > 100 µM | 786-0 38.3 µM | HCC 2998 > 100 µM | UACC-257 > 100 µM | HOP-62 28.6 µM | SR > 100 µM | ACHN > 100 µM | SF-268 > 100 µM | COLO 205 > 100 µM | HT-29 > 100 µM | HOP-92 > 100 µM | SK-MEL-28 > 100 µM | UACC-62 > 100 µM | SK-OV-3 > 100 µM | NCI-H23 > 100 µM | SF-295 > 100 µM | K562 > 100 µM | MDA-N > 100 µM | RPMI-8226 > 100 µM

Cn1c(=O)cc(NNc2ccc(Cl)c(Cl)c2)[nH]c1=O
inactive: MDA-MB-231 10.8 µM | 786-0 12.4 µM | HCC 2998 2.53 µM | UACC-257 14.9 µM | HOP-62 16.4 µM | SR > 100 µM | ACHN 5.46 µM | SF-268 27.9 µM | COLO 205 18.9 µM | HT-29 18 µM | HOP-92 14.9 µM | SK-MEL-28 11.5 µM | UACC-62 1.71 µM | SK-OV-3 20.8 µM | NCI-H23 29.2 µM | SF-295 15.3 µM | K562 2.04 µM | OVCAR-3 15.5 µM | MDA-N 9.06 µM | RPMI-8226 > 10 µM

Cc1c(-c2ccccc2)c(C#N)c2nnn(-c3ccccc3)c(=O)n12
inactive: MDA-MB-231 > 100 µM | 786-0 76.4 µM | HCC 2998 99.8 µM | UACC-257 > 100 µM | HOP-62 44.2 µM | SR 33.8 µM | ACHN 76.4 µM | SF-268 > 100 µM | COLO 205 54.1 µM | HT-29 29 µM | HOP-92 > 100 µM | SK-MEL-28 > 100 µM | UACC-62 92.5 µM | SK-OV-3 > 100 µM | NCI-H23 > 100 µM | SF-295 43.7 µM | K562 40.6 µM | OVCAR-3 85.1 µM | MDA-N > 100 µM | RPMI-8226 > 100 µM

Cc1ccc(-c2cc(-c3cc(-c4ccc(C)cc4C)[nH]n3)[nH]n2)c(C)c1
inactive: MDA-MB-231 16.2 µM | 786-0 13 µM | HCC 2998 13.2 µM | UACC-257 12.4 µM | HOP-62 13.9 µM | SR 10.2 µM | ACHN 11.5 µM | SF-268 12.5 µM | COLO 205 12.7 µM | HT-29 10.8 µM | HOP-92 18.9 µM | SK-MEL-28 13.7 µM | UACC-62 24.8 µM | SK-OV-3 15.2 µM | NCI-H23 19.8 µM | SF-295 13.1 µM | K562 15.5 µM | OVCAR-3 12.2 µM | MDA-N 14.9 µM | RPMI-8226 2.66 µM

CC(C)C1OCC(CO)CO1 (stereo unspecified)
inactive: MDA-MB-231 > 100 µM | 786-0 > 100 µM | HCC 2998 > 100 µM | UACC-257 > 100 µM | HOP-62 > 100 µM | SR > 100 µM | ACHN > 100 µM | SF-268 > 100 µM | COLO 205 > 100 µM | HT-29 > 100 µM | HOP-92 > 100 µM | SK-MEL-28 > 100 µM | UACC-62 > 100 µM | SK-OV-3 > 100 µM | NCI-H23 > 100 µM | SF-295 > 100 µM | OVCAR-3 > 100 µM | MDA-N > 100 µM | RPMI-8226 > 100 µM

CC(C)=CCC[C@@H](C)C1=C(N)C(=O)C(C)=C(O)C1=O
inactive: MDA-MB-231 67.5 µM | 786-0 43.7 µM | HCC 2998 > 75 µM | UACC-257 > 75 µM | HOP-62 55.1 µM | SR 26.3 µM | ACHN 18.8 µM | SF-268 27.4 µM | COLO 205 29.2 µM | HT-29 15.6 µM | HOP-92 57.4 µM | SK-MEL-28 > 75 µM | UACC-62 31.1 µM | SK-OV-3 71.1 µM | NCI-H23 42.7 µM | SF-295 32.1 µM | K562 35.7 µM | OVCAR-3 33 µM | MDA-N 51.3 µM | RPMI-8226 39.8 µM

CC1(COS(=O)(=O)OCC2(C)COS(=O)(=O)OC2)COS(=O)(=O)OC1
inactive: MDA-MB-231 > 73.6 µM | 786-0 > 50.8 µM | HCC 2998 > 60.7 µM | UACC-257 > 75 µM | HOP-62 62.2 µM | SR > 24.9 µM | ACHN > 32.3 µM | SF-268 > 100 µM | COLO 205 > 51.6 µM | HT-29 > 32.6 µM | HOP-92 10.3 µM | SK-MEL-28 > 100 µM | UACC-62 > 61.8 µM | SK-OV-3 > 100 µM | NCI-H23 > 25.8 µM | SF-295 > 100 µM | K562 > 26.2 µM | OVCAR-3 > 100 µM | MDA-N > 72.4 µM | RPMI-8226 > 20.2 µM

OCCCN(CCc1ccc(Cl)c(Cl)c1)CCN1CCCC1
inactive: MDA-MB-231 32.5 µM | 786-0 24 µM | HCC 2998 18 µM | UACC-257 19.3 µM | HOP-62 > 100 µM | SR 31.8 µM | ACHN 64.6 µM | SF-268 48 µM | HT-29 24.7 µM | HOP-92 > 100 µM | UACC-62 16.9 µM | SK-OV-3 > 100 µM | NCI-H23 69.8 µM | SF-295 34 µM | K562 19.5 µM | OVCAR-3 > 100 µM | MDA-N 17.3 µM | RPMI-8226 26.5 µM

Cn1cc(NC(=O)Nc2cc(C(=O)Nc3cc(C(=O)Nc4ccc5cc(S(=O)(=O)O)cc(S(=O)(=O)O)c5c4)n(C)c3)n(C)c2)cc1C(=O)Nc1cc(C(=O)Nc2ccc3cc(S(=O)(=O)O)cc(S(=O)(=O)O)c3c2)n(C)c1
inactive: MDA-MB-231 > 100 µM | 786-0 > 100 µM | HCC 2998 > 100 µM | UACC-257 > 100 µM | HOP-62 > 100 µM | SR > 100 µM | ACHN > 100 µM | SF-268 > 100 µM | COLO 205 > 100 µM | HT-29 > 100 µM | HOP-92 90.8 µM | SK-MEL-28 > 100 µM | UACC-62 > 100 µM | SK-OV-3 > 100 µM | NCI-H23 > 100 µM | SF-295 > 100 µM | K562 > 100 µM | OVCAR-3 84.3 µM | MDA-N > 100 µM | RPMI-8226 > 100 µM

COc1ccc(/N=N/N2CCCC2)cc1
inactive: MDA-MB-231 20.5 µM | 786-0 15.6 µM | HCC 2998 45.6 µM | UACC-257 > 100 µM | HOP-62 > 100 µM | SR 48.3 µM | ACHN 15.5 µM | SF-268 31.8 µM | COLO 205 17.9 µM | HT-29 40.2 µM | HOP-92 21.7 µM | SK-MEL-28 44.2 µM | UACC-62 30.9 µM | SK-OV-3 > 100 µM | NCI-H23 61.7 µM | SF-295 > 100 µM | K562 31.4 µM | OVCAR-3 19.6 µM | MDA-N 16.9 µM | RPMI-8226 26.1 µM
